Data as given in PubChem BioAssay AID248 (DTP/NCI, 2004).
Several values for one entry are separate records, joined by “and”; a condition that tells them apart may be missing. Equal entries are not always repeated. Toxic doses and inconclusive results are not listed.

System: L1210 leukemia ip in BDF1 mice, survival T/C
Assay: NCI In Vivo Anticancer Drug Screen. Data for tumor model L1210 Leukemia (intraperitoneal) in B6D2F1 (BDF1) mice
Details: endpoint: mean survival time, higher = longer survival
How it was run: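 Each compound was tested against a transplantable tumor grown in mice. The endpoint was survival, with treated animals benchmarked against vehicle controls as a simple ratio.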

[1] = dose: 50.0 mg/kg/injection, schedule: Q01DX009 (ip), vehicle: Klucel (hydroxypropylcellulose) (HPC)
[2] = dose: 100.0 mg/kg/injection, schedule: Q01DX009 (ip), vehicle: Klucel (hydroxypropylcellulose) (HPC)
[3] = dose: 100.0 mg/kg/injection, schedule: Q01DX001 (ip), vehicle: saline with Tween-80
[4] = dose: 200.0 mg/kg/injection, schedule: Q01DX001 (ip), vehicle: saline with Tween-80
[5] = dose: 400.0 mg/kg/injection, schedule: Q01DX001 (ip), vehicle: saline with Tween-80
[6] = dose: 200.0 mg/kg/injection, schedule: Q01DX009 (ip), vehicle: Klucel (hydroxypropylcellulose) (HPC)
[7] = dose: 100.0 mg/kg/injection, schedule: Q04DX003 (ip), vehicle: saline with Tween-80
[8] = dose: 200.0 mg/kg/injection, schedule: Q04DX003 (ip), vehicle: saline with Tween-80
[9] = dose: 400.0 mg/kg/injection, schedule: Q04DX003 (ip), vehicle: saline with Tween-80
[10] = dose: 100.0 mg/kg/injection, schedule: Q01DX001 (ip), vehicle: saline
[11] = dose: 200.0 mg/kg/injection, schedule: Q01DX001 (ip), vehicle: saline
[12] = dose: 400.0 mg/kg/injection, schedule: Q01DX001 (ip), vehicle: saline
[13] = dose: 100.0 mg/kg/injection, schedule: Q04DX003 (ip), vehicle: saline
[14] = dose: 200.0 mg/kg/injection, schedule: Q04DX003 (ip), vehicle: saline
[15] = dose: 50.0 mg/kg/injection, schedule: Q01DX009 (ip), vehicle: saline with Tween-80
[16] = dose: 100.0 mg/kg/injection, schedule: Q01DX009 (ip), vehicle: saline with Tween-80
[17] = dose: 200.0 mg/kg/injection, schedule: Q01DX009 (ip), vehicle: saline with Tween-80
[18] = dose: 400.0 mg/kg/injection, schedule: Q01DX009 (ip), vehicle: saline with Tween-80

O=C(O)c1ccc(CO)o1
T/C [1]: 107 % of control
T/C [2]: 93 % of control

CC1CN=C(c2ccc(NC(=O)c3cccc(C(=O)Nc4ccc(C5=NCC(C)N5)cc4)c3)cc2)N1 (stereo not drawn)
T/C (dose: 4.5 mg/kg/injection, schedule: Q01DX Z (ip), vehicle: carboxymethylcellulose (CMC)): 98 % of control
T/C (dose: 6.8 mg/kg/injection, schedule: Q01DX Z (ip), vehicle: carboxymethylcellulose (CMC)): 95 % of control
T/C (dose: 10.2 mg/kg/injection, schedule: Q01DX Z (ip), vehicle: carboxymethylcellulose (CMC)): 124 % of control
T/C (dose: 16.4 mg/kg/injection, schedule: Q01DX Z (ip), vehicle: carboxymethylcellulose (CMC)): 101 % of control
T/C (dose: 37.0 mg/kg/injection, schedule: Q01DX Z (ip), vehicle: carboxymethylcellulose (CMC)): 155 % of control
T/C (dose: 40.0 mg/kg/injection, schedule: Q01DX Z (ip), vehicle: carboxymethylcellulose (CMC)): 151 % of control
T/C (dose: 50.0 mg/kg/injection, schedule: Q## X010 (oral), vehicle: saline): 97 % of control
T/C (dose: 55.5 mg/kg/injection, schedule: Q01DX Z (ip), vehicle: carboxymethylcellulose (CMC)): 113 % of control and 87 % of control
T/C (dose: 100.0 mg/kg/injection, schedule: Q## X010 (oral), vehicle: saline): 103 % of control
T/C (dose: 200.0 mg/kg/injection, schedule: Q## X010 (oral), vehicle: saline): 96 % of control

O=[N+]([O-])c1ccc(N2CCCCC2)nc1
T/C (dose: 50.0 mg/kg/injection, schedule: Q01DX001 (ip), vehicle: carboxymethylcellulose (CMC)): 115 % of control
T/C (dose: 100.0 mg/kg/injection, schedule: Q01DX001 (ip), vehicle: carboxymethylcellulose (CMC)): 91 % of control
T/C (dose: 200.0 mg/kg/injection, schedule: Q01DX001 (ip), vehicle: carboxymethylcellulose (CMC)): 115 % of control
T/C (dose: 400.0 mg/kg/injection, schedule: Q01DX001 (ip), vehicle: carboxymethylcellulose (CMC)): 97 % of control

CCCCCCCCCCCCCC=C(C)C
T/C [3]: 94 % of control
T/C [4]: 94 % of control
T/C [5]: 87 % of control

CCOC(=O)C1C(=O)C(C(C2C(=O)C(C(=O)OCC)C(c3ccc(O)cc3)C(C(=O)OCC)C2=O)C(O)C(O)C(O)CO)C(=O)C(C(=O)OCC)C1c1ccc(O)cc1 (stereo not drawn) (tested in a mixture with another compound)
T/C [1]: 101 % of control and 96 % of control
T/C [2]: 93 % of control and 96 % of control
T/C [6]: 104 % of control and 107 % of control

O=C(O)c1cccc(F)c1.[Ni]
T/C (dose: 25.0 mg/kg/injection, schedule: Q04DX002 (ip), vehicle: gum acacia): 100 % of control
T/C (dose: 50.0 mg/kg/injection, schedule: Q04DX002 (ip), vehicle: gum acacia): 103 % of control
T/C (dose: 100.0 mg/kg/injection, schedule: Q04DX002 (ip), vehicle: gum acacia): 117 % of control

COc1cc(Nc2nc(Cl)ncc2[N+](=O)[O-])cc(OC)c1OC
T/C [7]: 90 % of control
T/C [8]: 92 % of control
T/C [9]: 92 % of control

CC(=O)C(C(C)=O)c1cc(NS(=O)(=O)c2ccccc2)ccc1O
T/C [3]: 100 % of control
T/C [4]: 104 % of control
T/C [5]: 89 % of control

CCOC(=O)c1c[nH]c2nc(N)ccc2c1=O
T/C (dose: 50.0 mg/kg/injection, schedule: Q01DX001 (ip), vehicle: saline): 104 % of control
T/C [10]: 106 % of control
T/C [11]: 106 % of control
T/C [12]: 101 % of control

CCN(CC)CCNCCN
T/C (dose: 12.5 mg/kg/injection, schedule: Q01DX009 (ip), vehicle: saline): 107 % of control
T/C (dose: 25.0 mg/kg/injection, schedule: Q01DX009 (ip), vehicle: saline): 111 % of control
T/C (dose: 50.0 mg/kg/injection, schedule: Q01DX009 (ip), vehicle: saline): 101 % of control and 102 % of control
T/C [13]: 94 % of control
T/C [14]: 96 % of control

CC1(C)OC(=O)C(C(N)=O)C1c1ccc(Cl)cc1 (stereo not drawn)
T/C [10]: 103 % of control
T/C [11]: 104 % of control
T/C [12]: 103 % of control

Cc1c(CC#N)cc(C)c2c3c([nH]c12)-c1ccccc1CC3
T/C (dose: 50.0 mg/kg/injection, schedule: Q04DX002 (ip), vehicle: Klucel (hydroxypropylcellulose) (HPC)): 102 % of control
T/C (dose: 100.0 mg/kg/injection, schedule: Q04DX002 (ip), vehicle: Klucel (hydroxypropylcellulose) (HPC)): 106 % of control
T/C (dose: 200.0 mg/kg/injection, schedule: Q04DX002 (ip), vehicle: Klucel (hydroxypropylcellulose) (HPC)): 102 % of control
T/C (dose: 400.0 mg/kg/injection, schedule: Q04DX002 (ip), vehicle: Klucel (hydroxypropylcellulose) (HPC)): 104 % of control

C=CCc1c(O)c(OC)cc2c1C(=O)CCCC2
T/C [15]: 93 % of control
T/C [16]: 93 % of control
T/C [17]: 93 % of control

O=C1CCC(N2C(=O)C3CC=CCC3C2=O)C(=O)N1 (stereo not drawn)
T/C [13]: 104 % of control and 109 % of control
T/C [14]: 104 % of control and 106 % of control
T/C (dose: 400.0 mg/kg/injection, schedule: Q04DX003 (ip), vehicle: saline): 97 % of control and 112 % of control

Cc1ccc(C(O)C(=O)O)c(C)c1 (stereo not drawn)
T/C (dose: 100.0 mg/kg/injection, schedule: Q04DX002 (ip), vehicle: saline with Tween-80): 101 % of control
T/C (dose: 200.0 mg/kg/injection, schedule: Q04DX002 (ip), vehicle: saline with Tween-80): 89 % of control

CN(C)O
T/C [16]: 103 % of control
T/C [17]: 105 % of control
T/C (dose: 222.0 mg/kg/injection, schedule: Q01DX Z (ip), vehicle: saline): 100 % of control
T/C (dose: 333.0 mg/kg/injection, schedule: Q01DX Z (ip), vehicle: saline): 97 % of control
T/C [18]: 108 % of control
T/C (dose: 500.0 mg/kg/injection, schedule: Q01DX Z (ip), vehicle: saline): 106 % of control

CCCCNC(=O)Nc1ccc(N(CC)CC)cc1
T/C [16]: 101 % of control
T/C [7]: 94 % of control
T/C [17]: 88 % of control
T/C [8]: 97 % of control
T/C [18]: 90 % of control
T/C [9]: 100 % of control

CCOC(=O)Nc1cccc2ccccc12
T/C (dose: 100.0 mg/kg/injection, schedule: Q04DX003 (ip), vehicle: Klucel (hydroxypropylcellulose) (HPC)): 101 % of control
T/C (dose: 200.0 mg/kg/injection, schedule: Q04DX003 (ip), vehicle: Klucel (hydroxypropylcellulose) (HPC)): 97 % of control
T/C (dose: 400.0 mg/kg/injection, schedule: Q04DX003 (ip), vehicle: Klucel (hydroxypropylcellulose) (HPC)): 98 % of control

COc1ccc(COC(=O)Nc2ccc(Br)cc2)c(OC)c1
T/C [2]: 98 % of control
T/C [6]: 104 % of control
T/C (dose: 400.0 mg/kg/injection, schedule: Q01DX009 (ip), vehicle: Klucel (hydroxypropylcellulose) (HPC)): 101 % of control

CC(C)(C)c1cc(CN2CCCC(O)C2)c(O)c(-c2ccccc2)c1 (stereo not drawn)
T/C [13]: 98 % of control
T/C [14]: 98 % of control

CC(Oc1ccccc1)C(=O)NC(=S)Nc1ccc(Cl)cc1 (stereo not drawn)
T/C (dose: 50.0 mg/kg/injection, schedule: Q01DX001 (ip), vehicle: saline with Tween-80): 97 % of control
T/C [15]: 97 % of control and 98 % of control and 92 % of control
T/C (dose: 50.0 mg/kg/injection, schedule: Q04DX003 (ip), vehicle: saline with Tween-80): 98 % of control
T/C [3]: 97 % of control
T/C [16]: 97 % of control and 98 % of control and 101 % of control
T/C [7]: 97 % of control
T/C [4]: 92 % of control
T/C [8]: 109 % of control

O=C1CCN(CCCN2CCC(=O)N(Cc3ccccc3)C2=S)C(=S)N1Cc1ccccc1
T/C (dose: 100.0 mg/kg/injection, schedule: Q04DX002 (ip), vehicle: DMSO): 87 % of control
T/C (dose: 200.0 mg/kg/injection, schedule: Q04DX002 (ip), vehicle: DMSO): 104 % of control
T/C (dose: 400.0 mg/kg/injection, schedule: Q04DX002 (ip), vehicle: DMSO): 101 % of control

COc1ccc(C2=CC(c3ccc(OC)c(OC)c3)c3c(c4ccccc4oc3=O)O2)cc1OC (stereo not drawn)
T/C (dose: 25.0 mg/kg/injection, schedule: Q01DX009 (ip), vehicle: water): 93 % of control
T/C (dose: 50.0 mg/kg/injection, schedule: Q01DX009 (ip), vehicle: water): 98 % of control
T/C (dose: 100.0 mg/kg/injection, schedule: Q01DX009 (ip), vehicle: water): 93 % of control
T/C (dose: 200.0 mg/kg/injection, schedule: Q01DX009 (ip), vehicle: water): 94 % of control
T/C (dose: 400.0 mg/kg/injection, schedule: Q01DX009 (ip), vehicle: water): 92 % of control

NC(=S)N/N=C/c1ccc(F)cc1
T/C (dose: 60.0 mg/kg/injection, schedule: Q01DX Z (oral), vehicle: methylcellulose (MC)): 90 % of control
T/C (dose: 120.0 mg/kg/injection, schedule: Q01DX Z (oral), vehicle: methylcellulose (MC)): 87 % of control
